Measured values as given in US20130190275A1, “COMBINED THERAPIES OF ANTIPSYCHOTIC DRUGS AND TETRACYCLINES IN THE TREATMENT OF PSYCHIATRIC DISORDERS” (MOR RESEARCH APPLICATIONS LTD., priority 2006, published 2013).

Experiments:
Type in all cases: in vivo, human
[1] = system: patients who experience first psychotic episode; assay: CANTAB Spatial Working Memory (SWM), adjuvant study; conditions: atypical antipsychotic drug+minocycline 200 mg/day vs +placebo
Experimental: (§1) The study was carried out in patients who experience first psychotic episode, and has followed the patient for a total duration of 6 months. As the study examines Minocycline as an adjuvant drug, the sample includes patients receiving one of the following atypical anti-psychotic drugs: Risperdal, Zyprexa, Geodon, Seroquel, and Leponex. […] In addition, the subjects were assessed by a battery of computerized neuropsychological tests (CANTAB—Cambridge Neuropsychological Test Automated Battery), measuring attention, memory, and planning. Executive function was tested by two tasks of the CANTAB: planning was tested by a computerized modification of the Tower of London, and working memory by a spatial working memory task. Minocycline was given as an add-on therapy. […] Clinical status was evaluated by the aforementioned scales at the onset of the study, every week for the first 6 weeks, and then once a month for the rest of the study period. Cognitive capabilities were assessed by the neuropsychological battery of tests according to the following schedule: upon initiation of the study (referred to as visit 1 in FIGS. 5-8), 3 months (referred to as visit 2 in FIGS. 5-8), and 6 months (referred to as visit 3 in FIGS. 5-8) after the start of the study. […]

[2] = system: patients who experience first psychotic episode; assay: Calgary Depression Scale for Schizophrenia, adjuvant study; conditions: atypical antipsychotic drug+minocycline 200 mg/day vs +placebo; p=0.099, n.s.
Experimental: (§2) The study was carried out in patients who experience first psychotic episode, and has followed the patient for a total duration of 6 months. As the study examines Minocycline as an adjuvant drug, the sample includes patients receiving one of the following atypical anti-psychotic drugs: Risperdal, Zyprexa, Geodon, Seroquel, and Leponex. […] Initial evaluation included the following clinical measures: • SCID (for reliability of diagnosis) • CGI (Clinical Global Impression) • PANSS (Positive and Negative Syndrome Scale for Schizophrenia) • SANS (Scale for the Assessment of Negative Symptoms) • Calgary Depression Scale for Schizophrenia • GAF • GRAF • Insight and Treatment Attitudes Questionnaire • QLS (Quality of Life Scale) • Multinomah Community Ability Scale • Extrapyramidal Side Effects Scale. Minocycline was given as an add-on therapy. […] Clinical status was evaluated by the aforementioned scales at the onset of the study, every week for the first 6 weeks, and then once a month for the rest of the study period. Cognitive capabilities were assessed by the neuropsychological battery of tests according to the following schedule: upon initiation of the study (referred to as visit 1 in FIGS. 5-8), 3 months (referred to as visit 2 in FIGS. 5-8), and 6 months (referred to as visit 3 in FIGS. 5-8) after the start of the study. […]

[3] = system: patients who experience first psychotic episode; assay: CANTAB Spatial Recognition Memory (SRM), adjuvant study; conditions: atypical antipsychotic drug+minocycline 200 mg/day vs +placebo; time x group p<0.01
Experimental: as §1, with “Memory” for “Executive function”, “using spatial and pattern recognition and spatial span” for “by two”, “CANTAB.” for “CANTAB: planning was tested by a computerized modification of the Tower of London, and working memory by a spatial working memory task.”, “therapy. Prior to randomization into minocycline/placebo adjuvant treatment, a preliminary (lead-in phase) screening phase of placebo treatment was undertaken: Placebo was given as an adjuvant to all patients for two weeks.” for “therapy.”

[4] = system: patients who experience first psychotic episode; assay: GRAF score, adjuvant study; conditions: atypical antipsychotic drug+minocycline 200 mg/day vs +placebo; group x time p<0.05
Experimental: as §2

`CN(C)c1ccc(O)c2c1C[C@H]1C[C@H]3[C@H](N(C)C)C(O)=C(C(N)=O)C(=O)[C@@]3(O)C(O)=C1C2=O` [minocycline] was tested, and the SWM between errors ([1]; p<0.0001) was “improved significantly more than the placebo group”, the SWM strategy score ([1]; p<0.05) was “improved significantly more than the placebo group” and the “Total Calgary Score” value [2] was “tended to reach greater improvement”. The “SRM percent of correct responses” value [3] was “kept relatively steady scores” and the GRAF score [4] was “greater improvement of the GRAF score”.
